The results in this text go back to patent US20090209577A1, “Novel Triazolopyridine Compounds” (PFIZER INC., priority 2004, published 2009).

Counter-ions that a name gives are not always drawn.

Usually IC50 stands for the concentration at which inhibition is half-maximal. Read a high IC50 as lower potency.

The target of this assay is T1, human p38 kinase alpha (Homo sapiens, UniProt Q16539).
T1 construct: The coding region of the human p38a cDNA was obtained by PCR-amplification from RNA isolated from the human monocyte cell line THP.1; made in house; host or cells: E. coli DH10B
T1 sequence (Q16539 whole entry): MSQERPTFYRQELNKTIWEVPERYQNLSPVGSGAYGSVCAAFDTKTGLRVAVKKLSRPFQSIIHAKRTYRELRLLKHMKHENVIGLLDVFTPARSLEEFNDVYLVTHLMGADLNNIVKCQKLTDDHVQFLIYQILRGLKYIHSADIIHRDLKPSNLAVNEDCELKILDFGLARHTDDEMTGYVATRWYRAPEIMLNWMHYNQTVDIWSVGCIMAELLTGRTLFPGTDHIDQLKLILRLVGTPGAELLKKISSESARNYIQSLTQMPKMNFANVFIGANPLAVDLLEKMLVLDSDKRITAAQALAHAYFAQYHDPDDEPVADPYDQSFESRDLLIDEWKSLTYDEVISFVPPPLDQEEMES
Kind of assay: p38 kinase in vitro assay (PHAS-I / 32P-ATP format or EGFRP / 33P-ATP format). In kind it is biochemical. The conditions noted are these: activated human p38 kinase alpha, 50 μM unlabeled ATP; two assay formats, table does not say which. Here is the method: The ability of compounds to inhibit human p38 kinase alpha was evaluated using two in vitro assay methods. In the first method, activated human p38 kinase alpha phosphorylates a biotinylated substrate, PHAS-I (phosphorylated heat and acid stable protein-insulin inducible), in the presence of gamma ^32P-ATP (^32P-ATP). PHAS-I was biotinylated prior to the assay and provides a means of capturing the substrate, which is phosphorylated during the assay. p38 Kinase was activated by MKK6. Compounds were tested in 10 fold serial dilutions over the range of 100 μM to 0.001 μM using 1% DMSO. Each concentration of inhibitor was tested in triplicate.
All reactions were carried out in 96 well polypropylene plates. Each reaction well contained 25 mM HEPES pH 7.5, 10 mM magnesium acetate and 50 μM unlabeled ATP. Activation of p38 was required to achieve sufficient signal in the assay. Biotinylated PHAS-1 was used at 1-2 μg per 50 μl reaction volume, with a final concentration of 1.5 μM. Activated human p38 kinase alpha was used at 1 μg per 50 μl reaction volume representing a final concentration of 0.3 μM. Gamma ^32P-ATP was used to follow the phosphorylation of PHAS-1. ^32P-ATP has a specific activity of 3000 Ci/mmol and was used at 1.2 μCi per 50 μl reaction volume. The reaction proceeded either for one hour or overnight at 30° C.
Following incubation, 20 μl of reaction mixture was transferred to a high capacity streptavidin coated filter plate (SAM-streptavidin-matrix, Promega) prewetted with phosphate buffered saline. The transferred reaction mix was allowed to contact the streptavidin membrane of the Promega plate for 1-2 minutes. Following capture of biotinylated PHAS-1 with ^32P incorporated, each well was washed to remove unincorporated ^32P-ATP three times with 2M NaCl, three washes of 2M NaCl with 1% phosphoric, three washes of distilled water and finally a single wash of 95% ethanol. Filter plates were air-dried and 20 μl of scintillant was added. The plates were sealed and counted.
A second assay format was also employed that is based on p38 kinase alpha induced phosphorylation of EGFRP (epidermal growth factor receptor peptide, a 21 mer) in the presence ^33P-ATP. Compounds were tested in 10 fold serial dilutions over the range of 100 μM to 0.001 μM in 1% DMSO. Each concentration of inhibitor was tested in triplicate. Compounds were evaluated in 50 μl reaction volumes in the presence of 25 mM Hepes pH 7.5, 10 mM magnesium acetate, 4% glycerol, 0.4% bovine serum albumin, 0.4 mM DTT, 50 μM unlabeled ATP, 25 μg EGFRP (200 μM), and 0.05 μCi ^33P-ATP. Reactions were initiated by addition of 0.09 μg of activated, purified human GST-p38 kinase alpha. Activation was carried out using GST-MKK6 (5:1, p38:MKK6) for one hour at 30° C. in the presence of 50 μM ATP. Following incubation for 60 minutes at room temperature, the reaction was stopped by addition of 150 μl of AG 1×8 resin in 900 mM sodium formate buffer, pH 3.0 (1 volume resin to 2 volumes buffer). The mixture was mixed three times with pipetting and the resin was allowed to settle. A total of 50 μl of clarified solution head volume was transferred from the reaction wells to Microlite-2 plates. 150 μl of Microscint 40 was then added to each well of the Microlite plate, and the plate was sealed, mixed, and counted.
The above protocol assays were used to determine the IC50 values for compounds in Examples 1-71 above.
In turn, `CC(C)c1nnc2cc(Cl)c(Sc3ccc(F)cc3F)c(Cl)n12` [Example 34, 5,7-dichloro-6-[(2,4-difluorophenyl)thio]-3-isopropyl[1,2,4]triazolo[4,3-a]pyridine] returned an IC50 of 3380 nM.
`COC(=O)c1cccc(-c2nnc3ccc(C(=O)c4ccc(F)cc4F)cn23)c1` [Example 29, methyl 3-[6-(2,4-difluorobenzoyl)[1,2,4]triazolo[4,3-a]pyridin-3-yl]benzoate] displayed an IC50 of 14000 nM.
As for `CC(C)c1nnc2ccc(Sc3ccc(F)cc3F)cn12` [34 (step 1), 6-[(2,4-difluorophenyl)thio]-3-isopropyl[1,2,4]triazolo[4,3-a]pyridine hydrochloride], it took 79.3 nM to reach half-maximal inhibition (IC50).
The molecule `Cc1ccc(C(N)=O)cc1-c1nnc2ccc(Sc3ccc(F)cc3F)cn12` [Example 41, 3-{6-[(2,4-difluorophenyl)thio][1,2,4]triazolo[4,3-a]pyridin-3-yl}-4-methylbenzamide] displayed an IC50 of 60.8 nM.
`COC(=O)c1ccc(C)c(-c2nnc3ccc(Br)cn23)c1` [41 (step 2), methyl 3-(6-bromo[1,2,4]triazolo[4,3-a]pyridin-3-yl)-4-methylbenzoate]: the half-inhibitory concentration (IC50) amounted to 12900 nM.
`CC(C)c1nnc2ccc(-c3cnn(Cc4ccccc4)c3)cn12` [Example 7, 6-(1-benzyl-1H-pyrazol-4-yl)-3-isopropyl[1,2,4]triazolo[4,3-a]pyridine]: the concentration for half-maximal inhibition (IC50) is above 100000 nM.
In turn, `CC(C)c1nnc2ccc(Cc3cccc(F)c3)cn12` [Example 68, 6-(3-fluorobenzyl)-3-isopropyl[1,2,4]triazolo[4,3-a]pyridine] yielded an IC50 of 5260 nM.
On to `CC(C)c1nnc2ccc(Sc3ccc(Br)cc3C(F)(F)F)cn12` [Example 51, 6-{[4-bromo-2-(trifluoromethyl)phenyl]thio}-3-isopropyl[1,2,4]triazolo[4,3-a]pyridine hydrochloride], for which the half-inhibitory concentration (IC50) is above 100000 nM.
For `Cc1ccc(C(=O)O)cc1-c1nnc2ccc(Sc3ccc(F)cc3F)cn12` [41 (step 4), 3-{6-[(2,4-difluorophenyl)thio][1,2,4]triazolo[4,3-a]pyridin-3-yl}-4-methylbenzoic acid hydrochloride] the value was 2920 nM; for `COC(=O)c1ccc(C)c(-c2nnc3ccc(Sc4ccc(F)cc4F)cn23)c1` [41 (step 3), methyl 3-{6-[(2,4-difluorophenyl)thio][1,2,4]triazolo[4,3-a]pyridin-3-yl}-4-methylbenzoate], 7.8 nM.
For `COC(=O)c1ccc(C)c(-c2nnc3n2CC(CCc2ccc(F)cc2F)CC3)c1` (racemic) [Example 18, racemic methyl 3-{6-[2-(2,4-difluorophenyl)ethyl]-5,6,7,8-tetrahydro[1,2,4]triazolo[4,3-a]pyridin-3-yl}-4-methylbenzoate], the concentration for half-maximal inhibition (IC50) stood at 107 nM.
The molecule `CC(C)(CC(O)CO)c1nnc2ccc(Sc3ccc(F)cc3F)cn12` (stereo not shown) [Example 33, 4-{6-[(2,4-difluorophenyl)thio][1,2,4]triazolo[4,3,a]pyridin-3-yl}-4-methylpentane-1,2-diol hydrochloride] yielded a concentration for half-maximal inhibition (IC50) of 1740 nM.
`CC(=O)c1ccc2nnc(C(C)C)n2c1` [Example 4, 1-(3-isopropyl[1,2,4]triazolo[4,3-a]pyridin-6-yl)ethanone] displayed a half-inhibitory concentration (IC50) above 100000 nM.
The molecule `O=C(NCCO)c1ccc(-c2nnc3ccc(Sc4ccc(F)cc4F)cn23)cc1` [Example 25, 4-{6-[(2,4-difluorophenyl)thio][1,2,4]triazolo[4,3-a]pyridin-3-yl}-N-(2-hydroxyethyl)benzamide] displayed a half-inhibitory concentration (IC50) of 93.6 nM.
With `CC(=O)OCC(=O)N1CCC(c2nnc3ccc(Sc4ccc(F)cc4F)cn23)CC1` [44 (step 4), 2-(4-{6-[(2,4-difluorophenyl)thio][1,2,4]triazolo[4,3-a]pyridin-3-yl}piperidin-1-yl)-2-oxoethyl acetate hydrochloride], the 50% inhibitory concentration (IC50) worked out at 367 nM.
As to `Cc1cc(CNCCO)ccc1-c1nnc2ccc(Sc3ccc(F)cc3F)cn12` [Example 45, 2-[(4-{6-[(2,4-difluorophenyl)thio][1,2,4]triazolo[4,3-a]pyridin-3-yl}-3-methylbenzyl)amino]ethanol dihydrochloride], the IC50 came out at 33.3 nM.
In turn, `NC(=O)c1cccc(-c2nnc3ccc(Sc4ccc(F)cc4F)cn23)c1` [Example 26, 3-{6-[(2,4-difluorophenyl)thio][1,2,4]triazolo[4,3-a]pyridin-3-yl}benzamide] gave an IC50 of 241 nM.
The molecule `C=Cc1ccc(-c2nnc3ccc(Cc4ccc(F)cc4F)cn23)cc1` [62 (step 2), 6-(2,4-difluorobenzyl)-3-(4-vinylphenyl)[1,2,4]triazolo[4,3-a]pyridine] yielded an IC50 of 2290 nM.
For `Cc1ccc(C(=O)NCC(N)=O)cc1-c1nnc2ccc(Sc3ccc(F)cc3F)cn12` [Example 42, N-(3-{6-[(2,4-difluorophenyl)thio][1,2,4]triazolo[4,3-a]pyridin-3-yl}-4-methylbenzoyl)glycinamide] the value was 46.5 nM.
